Results as given in patent publication US9456589B2, “Elasmobranch-repelling compounds and methods of use” (priority 2005, dated 2016).
Values joined by “and” are separate entries in the source; they are usually repeats but may differ in a detail not shown here. Identical values can stand only once. “Also recorded” adds a separate entry of the source.

What was measured:
lemon sharks [1] = conditions: Table 24; lemon shark; swab delivery
lemon sharks [2] = test: Tonic immobility, Hd Syringe Assay; format: in vivo, N. brevirostris; conditions: lemon; Hd syringe
Method: (§1) One bioassay used to observe and measure flight response is the tonic immobility test. Tonic immobility is a state of paralysis that typically occurs when a shark is subject to inversion of its body along the longitudinal axis. This state is called “tonic,” and the shark can remain in this state for up to 15 minutes thereby allowing researchers to observe effects of chemical repellents. The “tonic” state of the shark is first established by releasing seawater in proximity to the “tonic” shark with the same delivery instrument and at the same distance as a “test” repellent compound will be released. Some controls are released with a high flow rate (30 mL/sec) in order to establish that sharks are not awakened by a jet of fluid over their noses. Once behavioral controls are established, a compound or composition that may have a repelling effect is delivered to the shark. If the compound or composition engenders a flight response, the shark will awaken from the tonic state and rapidly attempt to flee the delivered repellent. Using this tonic immobility bioassay researches can quantify the strength of a repellent effect.
(§2) Lemon, nurse, blacktip and tiger sharks were placed in tonic immobility by inverting the shark's body along its longitudinal axis. […] The “tonic” state of each shark was first established by releasing a control of seawater in proximity to the shark with the same delivery instrument and at the same distance as the chemical repellent would later be delivered. In certain controls, sea water was released with a high flow rate (30 mL/sec) in order to establish that the sharks would not be awakened by a jet of fluid over their noses.
Once behavioral controls were established, the chemical repellent was delivered to the shark using the Hd Syringe Assay method, the Syringe 3/5/10 Assay method, the Bite Assay method or the Micropipette Assay method. […]

blacktip sharks = test: Tonic immobility, Syringe 3/5/10 Assay; format: in vivo, C. limbatus
Method: as §1
In the tonic immobility studies disclosed herein, several different methods were employed for delivery of repelling compounds. A first method for delivery of chemical repellent in tonic immobility studies employed a “Syringe 3/5/10 Assay” method. The “Syringe 3/5/10 Assay” method is so named because a test repellent is delivered to a shark from a distance of about “3” inches with a bolus of about “5” mL with a response to the test repellent considered positive if the shark reacts with a change in behavior within less than about “10” seconds from the time of delivery.
The “3/5/10 Syringe Assay” as employed herein delivered a dose of 5-6 mL of a test chemical repellent from a syringe fixed with a needle having a gauge of about 22 from a distance at least 3 inches in front of a shark. Because the test chemical repellent was delivered at a distance from the shark's nares and mouth, a cloud of test chemical repellent was dispersed over the shark within the water column. The dispersed test repellent was subject to water current direction, dispersion and dilution. As a result, a flight response within 10 seconds was considered a positive repellency response. […] Time from delivery to response is related to the size of the bolus delivered from the syringe, distance of the shark from the syringe and water current.
as §2
(§3) Once behavioral controls were established, the chemical repellent was delivered to the shark using the Hd Syringe Assay method, the Syringe 3/5/10 Assay method, the Bite Assay method or the Micropipette Assay method. […] If tonic immobility was terminated, the positive response was denoted as “Y.” If tonic immobility was not terminated but a behavior change within tonic immobility was noted, such as the opening of the mouth or a cough, the response was denoted as an “R” for reduced response. If no behavior change was observed, the negative response was denoted “N.”
In Syringe 3/5/10 Assays, 5-6 mL of 3-methylbutanal was delivered at least 3 inches in front of the shark's mouth. A cloud of the repellent dispersed over the shark within the water column. […] As noted above, because the dispersion of the chemical repellent upon delivery is affected by volume of repellent, water current, and other factors, the time between delivery and response was not correlatable with the potency of the repellent. […]

nurse sharks [3] = test: Tonic immobility, Syringe 3/5/10 Assay; format: in vivo, C. cirratum; conditions: juvenile nurse sharks
nurse sharks [4] = test: Tonic immobility, Micropipette Assay; format: in vivo, C. cirratum; conditions: nurse; micropipette; 270 ul
Method: as §1
(§4) A fourth method of delivery was called the “Micropipette Assay” method of delivery. In this method, a very small dose (fraction of a mL) of a test substance was delivered directly into a shark's mouth. […] A response, such as a cough or other notable action of the shark, was usually noted when effective gustatory repellents were delivered directly into a shark's mouth while in tonic immobility.
The Micropipette Assay method has not proven to be a particularly effective method of assaying for a flight response in elasmobranchs. The Micropipette Assay method is, nevertheless, an excellent method for specifying that a gustatory response has occurred. It is effective for specifying a gustatory response because the micropipette delivery method allows direct delivery of an entire bolus of test substance into the mouth of the shark being tested. […]

nurse sharks [5] = test: Tonic immobility, Hd Syringe Assay; format: in vivo, C. cirratum; conditions: nurse; Hd syringe
Method: as §1
Lemon, nurse, blacktip and tiger sharks were placed in tonic immobility by inverting the shark's body along its longitudinal axis. […]

lemon sharks [6] = test: Tonic immobility, Micropipette Assay; format: in vivo, N. brevirostris; conditions: lemon / juvenile sharks; micropipette
Method: as §1, §4
The Micropipette Assay method has not proven to be a particularly effective method of assaying for a flight response in elasmobranchs. The Micropipette Assay method is, nevertheless, an excellent method for specifying that a gustatory response has occurred. It is effective for specifying a gustatory response because the micropipette delivery method allows direct delivery of an entire bolus of test substance into the mouth of the shark being tested.
Using a microliter syringe or microliter pipette, a bolus of test chemical can be directed precisely into one of the shark's nares, or its mouth. […] Olfactory repellents will terminate tonic immobility almost immediately when injected into a nare of the shark.
as §2, §3
Further because the Micropipette assays were often done serially on the same set of sharks, second and third doses of the repellent over time would be expected to evoke less of a reaction. Nevertheless, the small doses delivered to the shark in the Micropipette assay provide important data on whether a compound is a gustatory stimulant because the small dose may be delivered directly into the mouth of the shark. This eliminates any olfactory response that might be acting in concert with a gustatory response to terminate tonic immobility.

tiger sharks = test: Tonic immobility, Syringe 3/5/10 Assay; format: in vivo, G. cuvieri; conditions: tiger shark
Method: as §1
In the tonic immobility studies disclosed herein, several different methods were employed for delivery of repelling compounds. A first method for delivery of chemical repellent in tonic immobility studies employed a “Syringe 3/5/10 Assay” method. […]

nurse sharks [7] = test: Tonic immobility, Bite Assay; format: in vivo, C. cirratum
Method: One bioassay used to observe and measure flight response is the tonic immobility test. Tonic immobility is a state of paralysis that typically occurs when a shark is subject to inversion of its body along the longitudinal axis. This state is called “tonic,” and the shark can remain in this state for up to 15 minutes thereby allowing researchers to observe effects of chemical repellents. The “tonic” state of the shark is first established by releasing seawater in proximity to the “tonic” shark with the same delivery instrument and at the same distance as a “test” repellent compound will be released. Some controls are released with a high flow rate (30 mL/sec) in order to establish that sharks are not awakened by a jet of fluid over their noses. Once behavioral controls are established, a compound or composition that may have a repelling effect is delivered to the shark. […] Using this tonic immobility bioassay researches can quantify the strength of a repellent effect. […]
In Bite Assays, a dose of typically less than 5 mL of 3-methylbutanal was presented directly into the shark's mouth using a pipette. […] Because the delivery was directly into the shark's mouth and responses were generally observed immediately upon delivery, time to response was not recorded.

[8] = tested on: sharks (lemon, nurse, blacknose, blacktip pooled); test: Tonic immobility, Syringe Assay, summary over species; format: in vivo
Method: as §1
A second delivery method called the “Syringe Assay” method delivered a dose of 60 mL or more of a test chemical repellent from at least one foot, and up to as many as five feet, from a shark. The distance of delivery was determined based on the strength of the water current in the direction of the shark. Time from delivery of the test substance until response was observed, measured and recorded. The “Syringe” method allows a researcher to observe how a diffusing and diluting cloud of test chemical repellent affects the shark's behavior when the shark encounters the delivered cloud of test substance. The “Syringe” method requires relatively large doses because of the diffusion of the cloud over time and distance. Time from delivery to response is related to the size of the bolus delivered from the syringe, distance of the shark from the syringe and water current.
In the Syringe assay about 60 mL or more of valeraldehyde was delivered from one to as many as five feet from the shark depending on the water current. […] Time from delivery to response was related to the size of the bolus delivered from the syringe, distance of the shark from the syringe and water current.

[9] = tested on: Caribbean reef and blacknose sharks; test: Cloud Dispersion Assay on competitively feeding sharks; format: in vivo, C. perezii, C. acronotus; conditions: 290 microliters
From the text: Another bioassay used to observe a flight response in sharks is a cloud dispersion assay on competitively feeding population of sharks. This assay is referred to as a “Cloud Dispersion Assay” or “Cloud Assay.” A pressurized fluid delivery system was designed to deliver repellent into large feeding populations of sharks. The repellent is released as a subsurface cloud, which follows the current. A 1 L plastic container containing the test chemical repellent solution is pressurized to approximately 20 psig with a battery compressor or hand pump. A globe valve is used to hold back the fluid. The fluid is delivered to the end of a long PVC pole using a Teflon tubing. This allows the operator to place the tip of the pole well into a population of feeding sharks. By actuating the small globe valve, a cloud of the chemical solution is released quickly and reliably into the feeding population. Controls are established using FD&C Red 40 dye and seawater, uncolored seawater, and air. These controls establish that sharks are not afraid to approach the delivery pole, nor are sharks deterred from feeding by the jet of control fluid or air.
In each assay disclosed herein, a control of sea water was performed prior to the testing of each test repellent. In the control, sea water was delivered to the shark to be tested in the same delivery manner as the test repellent was delivered. […]

In the case of O=C(O)CCC(=O)O [succinic acid], the “T? (termination of tonic immobility)” value (lemon sharks [1]) is reported as “N”.

With CCC(C=O)CC [diethylacetaldehyde] the “Comments (behavior observed)” value (lemon sharks [2]) was “cough”, the “Syringe 3/5/10 assays terminating tonic immobility” value (blacktip sharks; blacktip sharks) was “two of four” and the “Syringe 3/5/10 assays with behavioral response” value (blacktip sharks; blacktip sharks) was “behavioral response”. For the same molecule, the “Syringe 3/5/10 assays with no response” value (blacktip sharks; blacktip sharks) was “no response”, the “Comments (behavior observed)” value (blacktip sharks; blacktip, syringe 3/5/10) was “cough/tensed” and the “Syringe 3/5/10 assays terminating tonic immobility” value (nurse sharks [3]) was “six of six”. The “Response (time from delivery to response)” value (nurse sharks [4]) was 1 s, the “Comments (behavior observed)” value (nurse sharks [5]) was “cough” and the “Comments (behavior observed)” value (lemon sharks [6]) was “blinked; also recorded: cough”. For the same molecule, the “Syringe 3/5/10 assay outcome” value (tiger sharks) was “terminated”.

In the case of CC(=O)C(C)=O [2,3-butanedione], the “Bite Y (termination of tonic immobility), trials of trials” value (nurse sharks [7]) is reported as “terminated and 1/1”, the “Syringe N (no response), trials of trials” value [8] is reported as 1/8 and the “Syringe R (behavior response within tonic immobility), trials of trials” value [8] is reported as “behavioral response”. For the same molecule, the “Syringe Y (termination of tonic immobility), trials of trials” value [8] was “seven of eight and 7/8” and the “Cloud/Cage N (no response)” value [9] was “no response and 1/1”.
